For twelve compounds, Ki results are on record in BindingDB's records for doi:10.1016/j.bioorg.2016.07.006 (Dumlupinar University, 2016).

Test [1] concerns the target Carbonic anhydrase 1 (Homo sapiens, UniProt P00915). The test can be described thus: In vitro Carbonic Anhydrase Inhibition Assay. The protocol:
(§1) CA activity was measured according to the method described by Verpoorte et al. in inhibition studies, spectrophotometrically [Biochem., 242:4221-4229]. The reaction mixture contains 50 mM Tris-SO4 buffer (pH = 7.4), 3 mM 4-nitrophenylacetate and enzyme solution in 1 ml total volume. A reference measurement was done by using the same cuvette without enzyme solution. The measurement was repeated in triplicate at each concentration of 5-amino-1,3,4-thiadiazole-2-sulfonamide containing pyrazole derivatives.

For test [2], the target named is Carbonic anhydrase 2 (Homo sapiens, UniProt P00918). The test can be described thus: In vitro Carbonic Anhydrase Inhibition Assay. How it is done:
as §1

SMILES strings stand for the structures.

Sequence of Carbonic anhydrase 1 (P00915 whole entry): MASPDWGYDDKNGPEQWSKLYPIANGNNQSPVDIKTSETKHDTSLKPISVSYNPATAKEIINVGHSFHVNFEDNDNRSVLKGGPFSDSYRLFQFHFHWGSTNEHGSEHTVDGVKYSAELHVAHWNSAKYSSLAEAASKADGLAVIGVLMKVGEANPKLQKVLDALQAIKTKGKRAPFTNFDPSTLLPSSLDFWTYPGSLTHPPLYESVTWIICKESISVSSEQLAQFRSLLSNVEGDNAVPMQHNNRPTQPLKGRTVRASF

With `NS(=O)(=O)c1nnc(NC(=O)c2nn(-c3cccc(NN=C(C(=O)c4ccccc4)C(=O)c4ccccc4)c3)c(-c3ccccc3)c2C(=O)Nc2nnc(S(N)(=O)=O)s2)s1` [1-(3-(2-(1,3-Dioxo-1,3-diphenylpropan-2-ylidene)hydrazinyl)phenyl)-5-phenyl-N3,N4-bis(5-sulfamoyl-1,3,4-thiadiazol-2-yl)-1Hpyrazole-3,4-dicarboxamide (8)], the Ki (as a rule, a measure of affinity in units of concentration, obtained from inhibition or displacement) in test [1] was 4000 nM; in test [2], 878 nM.
On the same counts, the results for `CC(=O)/C(=N/Nc1cccc(-n2nc(C(=O)Nc3nnc(S(N)(=O)=O)s3)c(C(=O)Nc3nnc(S(N)(=O)=O)s3)c2-c2ccccc2)c1)C(=O)c1ccccc1` [1-(3-(2-(1,3-Dioxo-1-phenylbutan-2-ylidene)hydrazinyl)phenyl)-5-phenyl-N3,N4-bis(5-sulfamoyl-1,3,4-thiadiazol-2-yl)-1H-pyrazole-3,4-dicarboxamide (6)] are 119 nM and 119 nM.
The corresponding values for `CC(=O)C(=NNc1cccc(-n2nc(C(=O)Nc3nnc(S(N)(=O)=O)s3)c(C(=O)Nc3nnc(S(N)(=O)=O)s3)c2-c2ccccc2)c1)C(C)=O` [1-(3-(2-(2,4-Dioxopentan-3-ylidene)hydrazinyl)phenyl)-5-phenyl-N3,N4-bis(5-sulfamoyl-1,3,4-thiadiazol-2-yl)-1H-pyrazole-3,4-dicarboxamide (5)] are 767 nM and 494 nM.
For the compound `CC1(C)CC(=O)C(=NNc2cccc(-n3nc(C(=O)Nc4nnc(S(N)(=O)=O)s4)c(C(=O)Nc4nnc(S(N)(=O)=O)s4)c3-c3ccccc3)c2)C(=O)C1` [1-(3-((2-Hydroxy-4,4-dimethyl-6-oxocyclohex-1-en-1-yl)diazenyl)phenyl)-5-phenyl-N3,N4-bis(5-sulfamoyl-1,3,4-thiadiazol-2-yl)-1H-pyrazole-3,4-dicarboxamide (14)], the inhibitory constant (Ki) in test [1] was found to be 787 nM; in test [2], 288 nM.
The corresponding values for `NS(=O)(=O)c1nnc(NC(=O)c2nn(-c3cccc(NN=C4C(=O)CCCC4=O)c3)c(-c3ccccc3)c2C(=O)Nc2nnc(S(N)(=O)=O)s2)s1` [1-(3-((2-Hydroxy-6-oxocyclohex-1-en-1-yl)diazenyl)phenyl)-5-phenyl-N3,N4-bis(5-sulfamoyl-1,3,4-thiadiazol-2-yl)-1H-pyrazole-3,4-dicarboxamide (13)] are 508 nM and 157 nM.
The corresponding values for `NS(=O)(=O)c1nnc(NC(=O)c2nn(-c3cccc(/N=N/c4c(O)ccc5ccccc45)c3)c(-c3ccccc3)c2C(=O)Nc2nnc(S(N)(=O)=O)s2)s1` [1-(3-((2-Hydroxynaphthalen-1-yl)diazenyl)phenyl)-5-phenyl-N3,N4-bis(5-sulfamoyl-1,3,4-thiadiazol-2-yl)-1H-pyrazole-3,4-dicarboxamide (4)] are 1660 nM and 411 nM.
The corresponding values for `CCOC(=O)C(=NNc1cccc(-n2nc(C(=O)Nc3nnc(S(N)(=O)=O)s3)c(C(=O)Nc3nnc(S(N)(=O)=O)s3)c2-c2ccccc2)c1)C(=O)OCC` [Diethyl 2-(2-(3-(5-phenyl-3,4-bis((5-sulfamoyl-1,3,4-thiadiazol-2-yl)carbamoyl)-1H-pyrazol-1-yl)phenyl)hydrazono)malonate (10)] are 461 nM and 203 nM.
For `CCOC(=O)/C(=N\Nc1cccc(-n2nc(C(=O)Nc3nnc(S(N)(=O)=O)s3)c(C(=O)Nc3nnc(S(N)(=O)=O)s3)c2-c2ccccc2)c1)C(C)=O` [Ethyl 3-oxo-2-(2-(3-(5-phenyl-3,4-bis((5-sulfamoyl-1,3,4-thiadiazol-2-yl)carbamoyl)-1H-pyrazol-1-yl)phenyl)hydrazono)butanoate (7)], the inhibition constant (Ki) in test [1] stood at 710 nM; in test [2] it was 208 nM.
The corresponding values for `CCCC(=O)/C(=N/Nc1cccc(-n2nc(C(=O)Nc3nnc(S(N)(=O)=O)s3)c(C(=O)Nc3nnc(S(N)(=O)=O)s3)c2-c2ccccc2)c1)C(=O)OCC` [Ethyl 3-oxo-2-(2-(3-(5-phenyl-3,4-bis((5-sulfamoyl-1,3,4-thiadiazol-2-yl)carbamoyl)-1H-pyrazol-1-yl)phenyl)hydrazono)hexanoate (11)] are 246 nM and 84 nM.
The corresponding values for `CCOC(=O)/C(=N\Nc1cccc(-n2nc(C(=O)Nc3nnc(S(N)(=O)=O)s3)c(C(=O)Nc3nnc(S(N)(=O)=O)s3)c2-c2ccccc2)c1)C(=O)c1ccccc1` [Ethyl 3-oxo-3-phenyl-2-(2-(3-(5-phenyl-3,4-bis((5-sulfamoyl-1,3,4-thiadiazol-2-yl)carbamoyl)-1H-pyrazol-1-yl)phenyl)hydrazono)propanoate (9)] are 487 nM and 435 nM.
On the same counts, the results for `COC(=O)C(/N=N/c1cccc(-n2nc(C(=O)Nc3nnc(S(N)(=O)=O)s3)c(C(=O)Nc3nnc(S(N)(=O)=O)s3)c2-c2ccccc2)c1)S(=O)(=O)c1ccccc1` (centres undefined) [Methyl 2-((3-(5-phenyl-3,4-bis((5-sulfamoyl-1,3,4-thiadiazol-2-yl)carbamoyl)-1H-pyrazol-1-yl)phenyl)diazenyl)-2-(phenylsulfonyl)acetate (15)] are 318 nM and 92 nM.
For the compound `CC(=O)/C(=N/Nc1cccc(-n2nc(C(=O)Nc3nnc(S(N)(=O)=O)s3)c(C(=O)Nc3nnc(S(N)(=O)=O)s3)c2-c2ccccc2)c1)C(=O)OC(C)(C)C` [tert-Butyl 3-oxo-2-(2-(3-(5-phenyl-3,4-bis((5-sulfamoyl-1,3,4-thiadiazol-2-yl)carbamoyl)-1H-pyrazol-1-yl)phenyl)hydrazono)butanoate (12)], the results for the Ki in test [1] and in test [2] were 522 nM and 149 nM, respectively.
